We go through 10 compounds from PubChem BioAssay AID1963850 (Molecular Pharmacology Branch, DTP, NCI, 2024).

“And” between values parts separate entries of the source, which are not always exact repeats. Equal entries are not always repeated.

This experiment deals with 192522-019-R-J2-PDC complex tumor spheroid viability. Put plainly: Anticancer human tumor 192522-019-R-J2-PDC patient-derived colon adenocarcinoma cell line growth inhibition [POLQ]. To be noted: for viability, T/C: stronger effect = lower value. The method, then: Multicellular complex tumor spheroid response to Polymerase (POL) inhibitors (novobiocin, ART-558, RP6685) in combination with a variety of drugs and investigational agents in selected tumor cell lines
The POL inhibitors (novobiocin, ART-558, and RP6685) were evaluated both individually and in combination with standard of care and investigational anticancer small molecules within a complex spheroid model of solid tumors. . Complex spheroids include a stromal component modeled by human endothelial cells (HUVEC) and fibroblasts modeled by human mesenchymal stem cells (MSCs). The concentration ranges selected for each drug and investigational agent were based upon clinically achievable concentrations if the clinical Cmax of the agent was known.
Compounds. The drugs and investigational agents: novobiocin (NSC847541), ART-558 (NSC835418), RP-6685 (NSC848927), peposertib (NSC802822), ceralasertib (NSC780249), elimusertib (NSC800525), camonsertib (NSC841442), AZD-1390 (NSC803789), olaparib (NSC753686), talazoparib (NSC767125), rucaparib (NSC756644), sotorasib (NSC818433), MRTX-1133 (NSC836407), SN-38 (NSC673596), topotecan (NSC609699), epotoside (NSC141540), doxorubicin (NSC123127), gemcitabine (NSC613327), 5-fluorouracil (NSC19893), paclitaxel (NSC125973), vemurafenib (NSC761431), MSA-2 (NSC828583), SN-011 (NSC837082), adavosertib (NSC754352), prexasertib (NSC758257), carboplatin (NSC241240) and oxaliplatin (NSC266046), were obtained from the National Cancer Institute (NCI) Developmental Therapeutics Program Chemical Repository (21). The FDA-approved anticancer drug set is available from the Developmental Therapeutics Program at https://dtp.cancer.gov/organization/dscb/obtaining/. […] The stock solutions were prepared in dimethyl sulfoxide (DMSO, Sigma-Aldrich, St. Louis, MO, cat. D2650), except for the platinum compounds which were prepared in saline (Quality Biological, Gaithersburg, MD, cat. 114-055-101), at 800-fold the tested concentration and stored at -70 degrees C prior to their use. All drugs and investigational agents were tested over a range starting from a high concentration at or near the clinical Cmax and decreasing in half-log increments. If the clinical Cmax for an agent had not been determined, the highest concentration tested was 10 microM, except for SN-38, which was tested at a high concentration of 1 microM.
Cell Culture. All cells were maintained in an incubator at 37 degrees C and 5% CO2 with 95% humidity. The PDC lines were cultured according to standard operating procedures established by the NCI PDMR (https://pdmr.cancer.gov). Table 3 of the manuscript, lists the cell lines along with the number of the three cell types plated to form the mct-spheroids and media for tumor cell growth. After thawing, all PDC lines, except 997537-175-T-J1-PDC and 415267-285-R-J2-PDC, were cultured in Matrigel-coated flasks prepared with a working solution of 1X Ham's F-12 nutrient mix, without supplementation (Thermo Fisher Scientific, cat. 11765054), 100 U/mL penicillin-streptomycin (Thermo Fisher Scientific, cat. 15140122), and 2.5% Matrigel (Corning Inc., Corning, NY, cat. 354248) for the first three passages. The two PDC lines 997537-175-T-J1-PDC and 415267-285-R-J2-PDC were cultured on uncoated flasks. The 857933-349-R-J2-PDC line was cultured in 6C/Colon 1B media containing advanced DMEM/F-12 (Thermo Fisher Scientific, cat. 12634028), 10 mM HEPES (Thermo Fisher Scientific, cat. 15630080), 1X GlutaMAX supplement (Thermo Fisher Scientific, cat. 35050061), 0.1 mg/mL primocin (InvivoGen, San Diego, CA, cat. ant-pm-2), 10% defined fetal bovine serum, heat inactivated (HyClone Laboratories Inc., Logan, UT, cat. SH30070.03HI), 50% L-WRN conditioned media (ATCC, cat. CRL-3276), 1.25 mM N-Acetyl-L-cysteine (Sigma-Aldrich, cat. A9165), 10 mM nicotinamide (Sigma-Aldrich, cat. N0636), 1X B-27 supplement (Thermo Fisher Scientific, cat. 17504044), 1X N-2 supplement (Thermo Fisher Scientific, cat. […]

Setting [1] is: compound alone, run of 11/06/2023.
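Further: spheroids exposed to drugs for seven days before reading.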
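Wherever viability, T/C is given: 100% = DMSO vehicle control viability in luminescence.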

What is called viability, T/C is the ratio of treated to control. Usually IC50 stands for the concentration that inhibits the measured activity by half. On to `COc1cc(C2c3cc4c(cc3C(OC3OC5COC(C)OC5C(O)C3O)C3COC(=O)C23)OCO4)cc(OC)c1O` (centres undefined), for which the viability, T/C is 101% and 100% and 97.1% (compound 0.0316 µM); 96.5% and 97% and 97.3% (compound 0.1 µM); 86.6% and 86% and 84.8% (compound 1 µM); 59.9% (2×) and 65.3% (compound 3.16 µM); 75.5% and 79.4% and 55.1% (compound 10 µM). Where the note is “curve of compound”, the IC50 was greater than 10 µM.
On to `COc1ccc([C@@H](O)c2cc(-c3ncnc4cc(N5CCOCC5)ccc34)c(F)cc2Cl)nn1`, for which the viability, T/C (compound 0.0316 µM) is 105% and 101% and 113%; the viability, T/C (compound 0.1 µM) is 93.6% and 91.3% and 99.9%; the viability, T/C (compound 0.316 µM) was 100% and 94.7% and 106%; the viability, T/C (compound 1 µM) was 77.6% and 101% and 102%; the viability, T/C (compound 3.16 µM) is 83% and 75.1% and 92.5%; the viability, T/C (compound 10 µM) is 54.5% and 64.9% and 65.9%. In addition, for the setting “curve of compound”, the IC50 is greater than 10 µM.
On to `COc1cccc(OCCCN)c1-c1cc(Nc2cnc(C#N)cn2)n[nH]1`, for which the viability, T/C reads like this: (compound 0.00316 µM) 96.6% and 99.2% and 101%; (compound 0.0316 µM) 33% and 47.4% and 44%; (compound 0.1 µM) 32.7% and 40.1% and 36.7%; (compound 0.316 µM) 32.7% and 38.2% and 35.7%; (compound 1 µM) 28.8% and 37.6% and 34.5%. For the same compound, under “curve of compound”, the IC50 was 0.0153 µM and 0.0294 µM and 0.0264 µM.
On to `COc1cccc2c1C(=O)c1c(O)c3c(c(O)c1C2=O)CC(O)(C(=O)CO)CC3OC1CC(N)C(O)C(C)O1` (centres undefined), for which the viability, T/C (compound 0.0316 µM) was 103% and 101% and 100%; the viability, T/C (compound 0.1 µM) was 82.1% and 80.8% and 80.6%; the viability, T/C (compound 0.316 µM) is 72% and 89.1% and 66.9%; the viability, T/C (compound 1 µM) was 89.1% and 74.3% and 83.1%; the viability, T/C (compound 3.16 µM) was 69.1% and 72.3% and 65.9%; the viability, T/C (compound 10 µM) is 59.9% and 62.4% and 48.1%. In addition, the IC50 (curve of compound) was greater than 10 µM.
Regarding `Cc1cccc(N(C)C(=O)C2C(O)CCN2c2nc(C)cc(C(F)(F)F)c2C#N)c1` (centres undefined), the viability, T/C by setting is: (compound 0.0316 µM) 107% [middle of 13 runs]; (compound 0.1 µM) 108% [middle of 13 runs]; (compound 0.316 µM) 110% [middle of 13 runs]; (compound 1 µM) 106% [middle of 13 runs]; (compound 3.16 µM) 106% [middle of 13 runs]; (compound 10 µM) 110% [middle of 13 runs]. In addition, the IC50 reads like this: (compound alone, run of 10/31/2023) greater than 10 µM; under setting [1], greater than 10 µM.
Regarding `Cn1ncnc1[C@H]1c2n[nH]c(=O)c3cc(F)cc(c23)N[C@@H]1c1ccc(F)cc1`, the viability, T/C reads like this: (compound 0.000316 µM) 107% and 103% and 109%; (compound 0.001 µM) 95.2% and 97.2% and 98.7%; (compound 0.00316 µM) 95.3% and 101% and 95.1%; (compound 0.01 µM) 107% and 103% and 104%; (compound 0.0316 µM) 103% and 104% and 98.2%; (compound 0.1 µM) 91.1% and 96.3% and 85.5%. The IC50 (curve of compound) is greater than 0.1 µM.
For the compound `Nc1ccc(C#CCN(C(=O)Cc2ncc(C(F)(F)F)cc2C(F)(F)F)c2ccc(F)cc2)nn1`, the viability, T/C (compound 0.0316 µM) is 104% [middle of 13 runs]; the viability, T/C (compound 0.1 µM) is 106% [middle of 13 runs]; the viability, T/C (compound 0.316 µM) was 106% [middle of 13 runs]; the viability, T/C (compound 1 µM) was 105% [middle of 13 runs]; the viability, T/C (compound 3.16 µM) is 105% [middle of 13 runs]; the viability, T/C (compound 10 µM) was 107% [middle of 13 runs]. For the same compound, under setting [1], the IC50 is greater than 10 µM.
For `Nc1ccn(C2OC(CO)C(O)C2(F)F)c(=O)n1` (centres undefined), the viability, T/C was 100% and 102% and 104% (compound 0.0316 µM); 83.2% and 86.6% and 83.9% (compound 0.1 µM); 72.9% and 76.2% and 66.8% (compound 0.316 µM); 78.3% and 79.2% and 66% (compound 1 µM); 71.9% and 82% and 62.9% (compound 3.16 µM); 50.5% and 62.5% and 58.2% (compound 10 µM). Besides, the concentration for half-maximal inhibition (IC50) (curve of compound) is greater than 10 µM.
`O=C(c1cc(Cc2n[nH]c(=O)c3ccccc23)ccc1F)N1CCN(C(=O)C2CC2)CC1`: the viability, T/C by setting is: (compound 0.0316 µM) 99.6% and 98.7% and 100%; (compound 0.1 µM) 99% and 96.3% and 98.5%; (compound 0.316 µM) 96.2% and 100% and 101%; (compound 1 µM) 91.8% and 106% and 102%; (compound 3.16 µM) 97.4% and 116% and 113%; (compound 10 µM) 102% and 100% and 101%. Besides, the IC50 (curve of compound) was greater than 10 µM.
With `O=c1[nH]cc(F)c(=O)[nH]1`, the viability, T/C (compound 0.0316 µM) was 92.8% and 104% and 97.2%; the viability, T/C (compound 0.1 µM) is 88.4% and 98% and 84.1%; the viability, T/C (compound 0.316 µM) is 81.6% and 85.3% and 79.5%; the viability, T/C (compound 1 µM) is 79.2% and 93.5% and 73.6%; the viability, T/C (compound 3.16 µM) is 86.3% and 94.5% and 74.5%; the viability, T/C (compound 10 µM) is 76.5% and 86% and 63.1%. Besides, the IC50 (curve of compound) was greater than 10 µM.
